Source: the supplement of paper PMC13380429

What was measured:
[1] = test system: A549-ACE2 infected with SARS-CoV-2; experiment: morphology score (similarity to uninfected cells); higher = more like uninfected cells; conditions: 24 h
A549-ACE2 [2] = experiment: drug-induced phospholipidosis relative to tamoxifen; higher = more phospholipidosis
[3] = test system: A549-ACE2 infected with SARS-CoV-2; experiment: cell count relative to DMSO; higher = less toxic; conditions: 24 h
[4] = test system: A549-ACE2 infected with SARS-CoV-2; experiment: SARS-CoV-2 infection rate relative to DMSO; higher = more infection; conditions: 24 h
U2OS [5] = experiment: relative viability EC50 (midpoint between 100% and the lowest measured viability); higher = less toxic; conditions: 72 h
Calu-3 [6] = experiment: as above; conditions: 72 h
Vero E6 [7] = experiment: as above; conditions: 72 h
HepG2 [8] = experiment: as above; conditions: 72 h
U2OS [9] = experiment: drug sensitivity score (DSS) for viability; higher = more toxic; extreme values may be limits of the assay; conditions: 72 h
Calu-3 [10] = experiment: as above; conditions: 72 h
Caco-2 [11] = experiment: as above; conditions: 72 h
Vero E6 [12] = experiment: as above; conditions: 72 h
HepG2 [13] = experiment: as above; conditions: 72 h
U2OS [14] = experiment: cell viability relative to DMSO; higher = less toxic; conditions: 72 h
Calu-3 [15] = experiment: as above; conditions: 72 h
Caco-2 [16] = experiment: as above; conditions: 72 h
Vero E6 [17] = experiment: as above; conditions: 72 h
HepG2 [18] = experiment: as above; conditions: 72 h
A549-ACE2 [19] = experiment: phospholipidosis EC50; higher = less potent phospholipidosis inducer; conditions: 24 h
Caco-2 [20] = experiment: relative viability EC50 (midpoint between 100% and the lowest measured viability); higher = less toxic; conditions: 72 h

Cc1c(O)cccc1C(=O)N[C@@H](CSc1ccccc1)[C@H](O)CN1C[C@H]2CCCC[C@H]2C[C@H]1C(=O)NC(C)(C)C [nelfinavir]
Conditions	SARS-CoV-2 infection rate, [4] [%]	cell count, [3] [%]	cell viability, Caco-2 [16] [%]	cell viability, Calu-3 [15] [%]	cell viability, HepG2 [18] [%]	cell viability, U2OS [14] [%]	cell viability, Vero E6 [17] [%]	morphology score, [1]
1 nM	–	–	104	101	107	98.2	105	–
10 nM	–	–	93.4	87.1	96.7	92.5	99.7	–
100 nM	–	–	95.1	137	89.5	96.8	88.6	–
0.3 µM	95	104	–	–	–	–	–	0.27
1000 nM	–	–	70.1	109	90.2	93.5	97.3	–
3 µM	102	96	–	–	–	–	–	0.2
10 µM	69	113	–	–	–	–	–	0.69
10000 nM	–	–	78.7	86.7	76.4	86.9	93.6	–
30 µM	10	97	–	–	–	–	–	0.42

drug-induced phospholipidosis [%], A549-ACE2 [2]
Conditions	0.3 µM	0.833333 µM	3.33333 µM	6.66667 µM	10 µM	30 µM
24 h	1.63	2.14	9.03	22.8	35.3	64.7
48 h	1.06	-2.76	10.6	21.3	40.6	–
72 h	1.29	-2.99	4.63	19.4	37	–

Conditions	drug sensitivity score	phospholipidosis EC50 [µM]	relative viability EC50 [µM]
A549-ACE2 [19]	–	11.6	–
Caco-2 [11]	5.8	–	–
Calu-3 [6]	–	–	> 10
Calu-3 [10]	0	–	–
HepG2 [8]	–	–	> 10
HepG2 [13]	1.8	–	–
U2OS [5]	–	–	> 10
U2OS [9]	0	–	–
Vero E6 [7]	–	–	> 10
Vero E6 [12]	0	–	–

CN(C)CCCCC(=O)Nc1ccc(NC(=S)NC(=O)c2ccc(C(C)(C)C)cc2)cc1 [tenovin-6]
Conditions	SARS-CoV-2 infection rate, [4] [%]	cell count, [3] [%]	cell viability, Caco-2 [16] [%]	cell viability, Calu-3 [15] [%]	cell viability, HepG2 [18] [%]	cell viability, U2OS [14] [%]	cell viability, Vero E6 [17] [%]	morphology score, [1]
1 nM	–	–	92.9	91.1	107	94	99.4	–
10 nM	–	–	100	107	101	97.9	96.7	–
0.1 µM	91	100	–	–	–	–	–	0.22
100 nM	–	–	98.5	101	110	96.3	104	–
0.3 µM	90	102	–	–	–	–	–	0.15
1 µM	93	98	–	–	–	–	–	-0.08
1000 nM	–	–	94.6	95.1	88.8	101	103	–
3 µM	23	113	–	–	–	–	–	0.8
10000 nM	–	–	12.2	4.2	0.8	5.4	27.8	–

drug-induced phospholipidosis [%], A549-ACE2 [2]
Conditions	0.3 µM	0.833333 µM	3.33333 µM	6.66667 µM	10 µM
24 h	-1.65	-1.47	61.4	90.4	56.6
48 h	1.91	0.33	30	–	–
72 h	0.744	-3.12	26.8	–	–

Conditions	drug sensitivity score	phospholipidosis EC50 [µM]	relative viability EC50 [µM]
A549-ACE2 [19]	–	2.91	–
Caco-2 [11]	5.7	–	–
Caco-2 [20]	–	–	2.68
Calu-3 [6]	–	–	2.77
Calu-3 [10]	6	–	–
HepG2 [8]	–	–	2.24
HepG2 [13]	7.3	–	–
U2OS [5]	–	–	3.24
U2OS [9]	5.2	–	–
Vero E6 [7]	–	–	3.37
Vero E6 [12]	3.8	–	–
